Experimental data as given in patent US8158615B2, “Anti-viral composition for the topical treatment of Herpes Labialis (cold sores) and method for use thereof” (priority 2006, dated 2012).

How the values were obtained:
[1] = system: Herpes Labialis; settings: 1% concentration; application after the prodromal phase; cited from earlier work
[2] = Percutaneous absorption of CTC-96 from Dermal ointment Formulation, finite dose technique, Franz Diffusion Cells; type: in vitro ADME, human; settings: 48 hours; for Mass in Dermis / Mass in Receptor Solution / Percent of Applied Dose in Dermis / Percent of Applied Dose in Epidermis / Percent of Applied Dose in Receptor Solution: single application; for Percent of Applied Dose in Epidermis / Percent of Applied Dose in Receptor Solution / Mass in Epidermis / Mass in Surface wash / Mass, Total Recovery / Percent of Applied Dose in Surfacewash / Percent of Applied Dose, Total Recovery / Mass in Stratum Corneum / Percent of Applied Dose in Stratum Corneum: Mean ± SE; for Percent of Applied Dose in Receptor Solution: n = 3 donors; for Mass in Stratum Corneum / Percent of Applied Dose in Stratum Corneum: tape strip samples
Description: The percutaneous absorption of Doxovir-L® (CTC-96) was evaluated by mixing CTC-96 at two concentrations (10 mg/g and 1 mg/g) to homogeneity with a Dermal ointment Formulation (petrolatum 10% by weight, camphor 0.92% by weight, menthol 0.5% by weight, methyl salicylate 0.26% by weight, eucalyptus oil 0.30% by weight) and was determined in vitro, using the human cadaver skin model using the finite dose technique and Franz Diffusion Cells (12;13). Placebo consisted of the drug formulation without drug. The amount of Dermal ointment that is applied at each treatment was determined is shown in the following table (TABLE 1): The percutaneous absorption of Doxovir-L® (CTC-96) was determined is shown in the following table (TABLE 2 & TABLE 3): […]

[3] = system: HSV-1; test: Anti-viral activity of CTC-96 extracted from Dermal Ointment Formulation; type: cell-based; settings: extract diluted to 2.5 μg/ml
Text: FIG. 1 is a graphical representation showing the anti-viral activity of CTC-96 extracted from the dermal formulation.
CTC-96 was mixed to homogeneity with a Dermal Ointment Formulation (petrolatum 10% by weight, camphor 0.92% by weight, menthol 0.5% by weight, methyl salicylate 0.26% by weight, eucalyptus oil 0.30% by weight).

Nc1nc2c(ncn2CCC(CO)CO)c(=O)[nH]1 [penciclovir]
reduction in symptoms and time to healing [1]: 20-30%

CC(/C=C(/C)[O-])=NCCN=C(C)/C=C(/C)[O-].Cc1ncc[nH]1.Cc1ncc[nH]1.[Br-].[Co+3] [CTC-96]
Mass in Dermis ([2]; drug concentration 1 mg/g): 0 μg/cm2
Mass in Receptor Solution ([2]; drug concentration 1 mg/g): 0 μg/cm2
Percent of Applied Dose in Dermis ([2]; drug concentration 1 mg/g): 0% of Applied Dose
Percent of Applied Dose in Epidermis ([2]; drug concentration 1 mg/g): 2.20 ± 1.09% of Applied Dose
Percent of Applied Dose in Receptor Solution ([2]; drug concentration 1 mg/g): 0% of Applied Dose
Mass in Epidermis ([2]; drug concentration 1 mg/g): 0.11 ± 0.05 μg/cm2
Mass in Surface wash ([2]; drug concentration 1 mg/g): 3.17 ± 0.01 μg/cm2
Mass, Total Recovery ([2]; drug concentration 1 mg/g): 4.83 ± 0.07 μg/cm2
Percent of Applied Dose in Surfacewash ([2]; drug concentration 1 mg/g): 7.41 ± 0.30% of Applied Dose
Percent of Applied Dose, Total Recovery ([2]; drug concentration 1 mg/g): 9.67 ± 1.34% of Applied Dose
Mass in Stratum Corneum ([2]; drug concentration 1 mg/g): 0.03 ± 0.00 μg/cm2
Percent of Applied Dose in Stratum Corneum ([2]; drug concentration 1 mg/g): 0.06 ± 0.06% of Applied Dose
Mass in Dermis ([2]; drug concentration 10 mg/g): 0 μg/cm2
Mass in Receptor Solution ([2]; drug concentration 10 mg/g): 0 μg/cm2
Percent of Applied Dose in Dermis ([2]; drug concentration 10 mg/g): 0% of Applied Dose
Percent of Applied Dose in Epidermis ([2]; drug concentration 10 mg/g): 3.63 ± 0.58% of Applied Dose
Percent of Applied Dose in Receptor Solution ([2]; drug concentration 10 mg/g): 0% of Applied Dose
Mass in Epidermis ([2]; drug concentration 10 mg/g): 1.81 ± 0.29 μg/cm2
Mass in Surface wash ([2]; drug concentration 10 mg/g): 5.41 ± 1.90 μg/cm2
Mass, Total Recovery ([2]; drug concentration 10 mg/g): 7.86 ± 1.56 μg/cm2
Percent of Applied Dose in Surfacewash ([2]; drug concentration 10 mg/g): 10.81 ± 3.79% of Applied Dose
Percent of Applied Dose, Total Recovery ([2]; drug concentration 10 mg/g): 15.72 ± 3.12% of Applied Dose
Mass in Stratum Corneum ([2]; drug concentration 10 mg/g): 0.64 ± 0.33 μg/cm2
Percent of Applied Dose in Stratum Corneum ([2]; drug concentration 10 mg/g): 1.29 ± 0.67% of Applied Dose
% Inhibition Mean ± SD ([3]; incubated at 4° C., 3 mo): 91.5 ± 0.5%
% Inhibition Mean ± SD ([3]; incubated at 4° C., 6 mo): 91.5 ± 3.4%
% Inhibition Mean ± SD ([3]; incubated at 4° C., time 0): 91.8 ± 1.7%
% Inhibition Mean ± SD ([3]; incubated at 40° C., 3 mo): 90.1 ± 0.8%
% Inhibition Mean ± SD ([3]; incubated at 40° C., 6 mo): 92.1 ± 1.0%
% Inhibition Mean ± SD ([3]; incubated at 40° C., time 0): 88.8 ± 2.7%
